Entries after “also recorded” stand apart in the source; their conditions may differ.
How the values were obtained:
[1] = test system: DHT-regulated transcripts; assay: DHT-regulated transcripts, Illumina platform, LNCaP cells; format: cell-based; conditions: of the 341 transcripts significantly upregulated by DHT
Description: FIG. 8. Effect of D2 on DHT-induced transcription: RNA from LNCaP cells untreated or treated with DHT in the absence and presence of D2 were evaluated by the Illumina platform for DHT-regulated transcripts. […] Expression levels of selected genes are shown in the right panel, including AR-regulated genes and those involved in cell proliferation.
FIG. 8 confirms these findings by QPCR experiment evaluating the effect of D1 and D2 on DHT-induced TMPRSS and PSA gene expression at the RNA level in LNCaP cells (bottom left panel) and by western blot analyses as evaluated by the effect of D1 and D2 on the expression of PSA, androgen receptor and actin in LAPC4 cells at the protein level. […] Confirmation of these findings were obtained by QPCR and western blot analyses.

[2] = test system: prostate cancer cells; assay: Toxicity in vitro and in vivo
Excerpt: The peptidomimetics of the present invention are non-toxic under in vitro and in vivo conditions. The development of these peptidomimetics represents a quantum leap in the development of a drug to target AR signaling. […] In addition to improvements in the helical face and presentation of the leucines, the inventors have proven efficacy of this system against prostate cancer cell proliferation both in vitro and in vivo. Thus, in contrast to existing technology, the inventors have developed and tested an active peptidomimetic against prostate cancer and other androgen receptor involved cancers.
They have shown that this synthetic peptidomimetic D2 is capable of blocking AR-PELP-1 interaction, nuclear translocation of AR, AR mediated genomic signaling as well as DHT-mediated proliferation of prostate cancer cells in vitro. The IC50 of D2 appears to be around 40 nM. The effect of the D2 peptidomimetic appears to be specific to blocking AR-PELP-1 interaction, as overexpression of AR or PELP-1 may overcome D2-mediated blockade. […] In comparison, administration of either control peptidomimetics or control soluent has no effect on the growth of prostate cancer cells in vitro or in vivo. In addition, the inventors have generated and tested hundreds of variants of D2 and have identified related peptidomimetics with similar or equivalent potency.

[3] = test system: ARE-luciferase reporter; assay: DHT-induced transcription from minimal ARE-luciferase reporter; format: cell-based; conditions: LNCaP, CWR22v1 and LAPC4 cell lines
Excerpt: FIG. 9. […] This effect of D2 could be rescued by overexpression of AR (bottom left panel) or PELP1 (bottom right panel).
At the protein level, D2, but not D1, was able to block DHT-induced expression of PSA protein. Again, the suppresion of DHT-induced transcription from an ARE could be overcome by overexpression of either AR or PELP1 ([…]). Overexpression of PELP1 was able to rescue the D2-mediated suppression of DHT-induced transcription nearly back to baseline.

[4] = test system: PCa cell lines that contain AR; assay: DHT-induced proliferation of prostate cancer cells (MTT assay); format: cell-based
Description: FIGS. 10A-E. D2 blocks proliferation of prostate cancer cells in vitro and in vivo (a) Effect of pretreatment with 100 nM of D1 and D2 on DHT-induced proliferation in multiple prostate cancer cell lines in MTT assay. Numbers are normalized to a baseline of 100, which represents the untreated rate of proliferation. (b) Effect of pretreatment with 100 nM of D1 and D2 on DHT-induced proliferation in LNCaPcells on a Cyquant assay. (c) Dose dependent curve of D2 on proliferation of LAPC4 cells. (d) Rescue of DHT induced proliferation by overexpression of PELP1 following suppression of DHT induced proliferation with 100 nM of D2. (e). Effect of direct intratumoral injections of D1 and D2 on the proliferation of prostate cancer xenografts in animal models: Following establishment of subcutaneous xenografts in animal models, daily direct intratumoral injections of D1 and D2 were performed. Bioluminesence imaging was used to track the growth of the tumors and the effect of D1 and D2 quantitated as shown in the graph.
The importance of PELP1 and AR interaction on DHT-mediated proliferation of prostate cancer cells were confirmed using rescue experiments, where D2 suppression of DHT-mediated proliferation was overcome by overexpression of PELP1 in LNCaP PCa cells.
(§1) In this experiment, cells were plated (2-10×10^3/well) in 96 well plates and subjected to androgen deprivation for 48 hours with phenol-red free RPMI and 1% charcoal stripped fetal bovine serum (CSF). Cells were then treated with either ethanol, EGF or DHT as a positive control for 48 hours. Peptidomimetics were added 2 hours prior to treatment. Cell proliferation was measured using the MTT colorimetric assay.
as §1, with “Cells” for “In this experiment, cells”, “96-well” for “96 well”, “ethanol” for “ethanol, EGF”, “hours” for “hours.”

[5] = Stability of D2 in culture and in LNCaP cell lysate (HPLC); format: in vitro ADME
Excerpt: FIGS. 4A-F. (FIG. 4A) Chemical structure of the bis-benzamide (D2). (FIG. 4B) the lowest-energy conformation of D2. (FIG. 4C) the stereoview of the superimposition of D2 on a helical turn.

[6] = test system: AR nuclear translocation; assay: DHT-induced nuclear translocation of AR in LNCaP cells; format: cell-based
Description: FIGS. 13A-B. Effect on DHT-induced nuclear translocation of exogenous AR-GFP in LNCaP cells transiently transfected with AR. (a) Blue stain is DAPI (for nucleus) and green is AR (GFP). Baseline untreated LNCaP cells are shown in top left panel. Cells were pretreated with DMSO (left panel), 100 nM D1 (middle panel) and 100 nM D2 (right panel) and then treated with 1 nM DHT. AR nuclear translocation was visualized at 4 hours following DHT treatment. (b) Nuclear and cytoplasmic extracts were collected from similar cells and subject to western analyses.
FIG. 13 shos that pretreatment with D2 blocked DHT-induced translocation of AR-GFP to the nucleus in LnCaP cells compared to the control D1 or DMSO.

## COC(=O)c1ccc(NC(=O)c2ccc([N+](=O)[O-])c(OCC(C)C)c2)c(OCC(C)C)c1 [D2]
[1]
  DHT-upregulated genes reduced back to baseline: 219 genes
[2]
  toxicity: non-toxic to prostate cancer cells
[3]
  DHT-induced transcription from minimal ARE-luciferase reporter: able to block; also recorded: block DHT-Induced gene expression
[4]; DHT-induced proliferation, MTT assay, structure-function series
  activity on the proliferation of prostate cancer cells (FIGS. 17, 19A-N): good activity
[4]; LNCaP, LAPC4, C4-2, RWPE-1, CWR22v1, VCaP, MDAPCa 2b, pretreatment (100 nM in FIG. 10)
  DHT-induced proliferation of PCa cells: prevented; also recorded: does block
[4]; MTT assays, in vitro, read-out: IC50, DHT-mediated proliferation of PCa cells
  IC50: ~40 nM
[5]; LNCaP cell lysate, 37° C., 7 days
  stability in cell lysate: stable in cell lysate of LNCaP over 7 days
[5]; in culture, FIG. 4E
  stability in culture (HPLC): single peak on the HPLC
[6]; 100 nM pretreatment, 1 nM DHT, 4 hours
  DHT-induced translocation of AR-GFP to the nucleus (imaging): blocked
[6]; upon addition of DHT
  AR nuclear translocation (nuclear and cytoplasmic extracts): prevents AR nuclear translocation
